Results: US20070088043A1, “Novel HDAC inhibitors” (ORCHID RESEARCH LABORATORIES LIMITED., priority 2005, published 2007)

Experiments:
NCIH 460 cells = experiment: Anti-cancer screen (MTT), NCIH460; format: cell-based; details: Homo sapiens, NCI-H460, NCIH460 cells, 48 hours, MTT; for GI50: concentration to decrease % growth by 50%; for IC100: concentration to decrease % growth by 100%, read-out: NCIH460 TGI; for LC50: concentration to decrease % growth by 150%
Method: (§1) Experimental drugs are screened for anti-cancer activity in three cell lines for their GI50, TGI and LC50 values (using five concentrations for each compound). The cell lines are maintained in DMEM containing 10% fetal bovine serum. 96 well micro titer plates are inoculated with cells in 100 μL for 24 h at 37° C., 5% CO2, 95% air and 100% relative humidity. 5000 HCT 116 cells/well, 5000 NCIH 460 cells/well and 5000 U251 cells/well are plated. A separate plate with these cell lines is also inoculated to determine cell viability before the addition of the compounds (T0).
(§2) Following 24-hour incubation, experimental drugs are added to the 96 well plates. Each plate contains one of the above cell lines and the following in triplicate: five different concentrations (0.01, 0.1, 1, 10 and 100 μM) of four different compounds, appropriate dilutions of a cytotoxic standard and control (untreated) wells. Compounds are dissolved in DMSO to make 20 mM stock solutions on the day of drug addition and frozen at −20° C. Serial dilutions of these 20 mM stock solutions are made in complete growth medium such that 100 μL of these drug solutions in medium, of final concentrations equaling 0.01, 0.1, 1, 10 and 100 μM can be added to the cells in triplicate. Standard drugs whose anti-cancer activity has been well documented and which are regularly used are doxorubicin and SAHA.
(§3) For To measurement, 24 hours after seeding the cells, 10 μL of 3-(4,5-Dimethyl-2-thiazolyl)-2,5-diphenyl-2H-tetrazolium (MTT) solution per well is added and incubation carried out for 3 hours at 37° C., 5% CO2, 95% air and 100% relative humidity, protected from light. Cells incubated with compounds for 48 hours are treated similarly except with the addition of 20 μL MTT solution per well and a subsequent incubation under the same conditions. After 3 hours of MTT incubation, well contents are aspirated carefully followed by addition of 150 μL DMSO per well. Plates are agitated to ensure solution of the formazan crystals in DMSO and absorbance read at 570 nm. […]

HCT 116 cells = experiment: Anti-cancer screen (MTT), HCT116; format: cell-based; details: Homo sapiens, HCT-116, HCT116 cells, 48 hours, MTT; for GI50: concentration to decrease % growth by 50%; for IC100: concentration to decrease % growth by 100%, read-out: HCT116 TGI; for LC50: concentration to decrease % growth by 150%
Method: as §1, §2, §3

MDAMB231/U251 = experiment: Anti-cancer screen (MTT), MDAMB231/U251; format: cell-based; details: MDAMB231/U251 cells, 48 hours; for GI50: concentration to decrease % growth by 50%; for IC100: concentration to decrease % growth by 100%, read-out: MDAMB231/U251 TGI; for LC50: concentration to decrease % growth by 150%
Method: as §1, §2, §3

[1] = system: NCIH460, HCT116, MDAMB231/U251; experiment: Anti-cancer screen, mean GI50 over the cell lines; format: cell-based; details: in µM
Method: as §1, §2, §3

[2] = system: HDAC (Mouse Liver Extract); experiment: Histone Deacetylase (HDAC) Inhibition Assay using Boc-Lys (Ac)-AMC Substrate; format: biochemical; details: mouse liver enzyme, NA = No Activity; for HDAC Inhibition 1 μM / HDAC Inhibition 10 μM: in % (unit assumed)
Description: HDAC Activitv Screening: Histone Deacetylase (HDAC) Inhibition Assay using Boc-Lys (Ac)-AMC Substrate:
Inhibition of HDAC has been implicated to modulate transcription and to induce apoptosis or differentiation in cancer cells. The fluorometric assay provides a fast and fluorescence based method that eliminates radioactivity, extractions or chromatography, as used in traditional assays. The assay based on two steps. First, the HDAC fluorometric substrate, which comprises an acetylated lysine side chain, is incubated with a sample containing HDAC activity (Mouse Liver Extract). Deacetylation of the substrate sensitizes the substrate, in the second step; treatment with the Trypsin stop solution produces a fluorophore that can be easily analyzed using fluorescence plate reader.
Assay was done in 96 well black microplate and total volume of the assay is 100 ul. Mouse liver enzyme is diluted 1:6 with HDAC buffer. Enzyme cocktail made of 10 ul of diluted enzyme and 30 ul of HDAC buffer. 40 ul of enzyme cocktail dispensed into each well. 10 ul of different concentrations of inhibitor added in to each well, except enzyme control well. Preincubated the plate at 30° C. for 5 minutes. The HDAC reaction is started by adding 50 ul of HDAC substrate (Boc-Lys (Ac)-AMC Substrate) solution. Incubated the plate at 30° C. for 30 minutes. Adding 100 ul of Trypsin stop solution stops the reaction. The plate is incubated again at 30° C. for 20-30 minutes. The release of AMC is monitored by measuring the fluorescence at excitation wavelength of 365 or 360 nm and emission wavelength of 440 or 460 nm. Buffer and substrate alone kept for blank subtraction. (Dennis Wegener et al, Anal. Biochem, 321, 2003, 202-208).

## CC(=O)SCCCCCC(=O)N1CCN(CC(=O)Nc2nc3ccc(C)cc3s2)CC1 [Example 12, 2-[4-(6-Thioacetylhexanoyl)piperazin-1-yl]-N-(6-methyl-1,3-benzothiazol-2-yl)acetamide]
NCIH 460 cells
  GI50: 25 µM
  IC100: 75 µM
  LC50: > 100 µM
HCT 116 cells
  GI50: 7 µM
  IC100: > 100 µM
  LC50: ≥ 100 µM
MDAMB231/U251
  GI50: 19 µM
  IC100: 65 µM
  LC50: > 100 µM
[1]
  Mean GI50: 17
[2]
  HDAC Inhibition 1 μM: 57.31
  HDAC Inhibition 10 μM: 85.59

## CC(=O)SCCCCC(=O)N1CCN(CC(=O)Nc2nc3c(C)cccc3s2)CC1 [Example 13, 2-[4-(5-Thioacetylpentanoyl)piperazin-1-yl]-N-(4-methyl-1,3-benzothiazol-2-yl)acetamide]
NCIH 460 cells
  GI50: > 100 µM
  IC100: > 100 µM
  LC50: > 100 µM
HCT 116 cells
  GI50: 6 µM
  IC100: > 100 µM
  LC50: > 100 µM
MDAMB231/U251
  GI50: 6 µM
  IC100: 30 µM
  LC50: > 100 µM
[1]
  Mean GI50: >100
[2]
  HDAC Inhibition 1 μM: 26.73
  HDAC Inhibition 10 μM: 55.56

## CC(=O)SCCCCC(=O)N1CCN(CC(=O)Nc2nc(C(C)(C)C)cs2)CC1 [Example 14, 2-[4-(5-Thioacetylpentanoyl)piperazin-1-yl]-N-(4-tertiarybutyl-1,3-thiazol-2-yl)acetamide]
NCIH 460 cells
  GI50: > 100 µM
  IC100: > 100 µM
  LC50: > 100 µM
HCT 116 cells
  GI50: 50 µM
  IC100: > 100 µM
  LC50: > 100 µM
MDAMB231/U251
  GI50: 0.08 µM
  IC100: 27 µM
  LC50: > 100 µM
[1]
  Mean GI50: >100
[2]
  HDAC Inhibition 1 μM: 23.11
  HDAC Inhibition 10 μM: 57.33

## CC(=O)SCCCCC(=O)N1CCN(CC(=O)Nc2ccccc2)CC1 [Example 16, 2-[4-(5-Thioacetylpentanoyl)piperazin-1-yl]-N-(phenyl-2-yl)acetamide]
NCIH 460 cells
  GI50: 30 µM
  IC100: 52 µM
  LC50: > 100 µM
HCT 116 cells
  GI50: 58 µM
  IC100: > 100 µM
  LC50: > 100 µM
MDAMB231/U251
  GI50: 1 µM
  IC100: > 100 µM
  LC50: > 100 µM
[1]
  Mean GI50: 29.67
[2]
  HDAC Inhibition 1 μM: 29.26
  HDAC Inhibition 10 μM: 68.52

## CC(=O)SCCCCCC(=O)N1CCN(CC(=O)Nc2nc(C)cs2)CC1 [Example 17, 2-[4-(6-Thioacetylhexanoyl)piperazin-1-yl]-N-(4-methyl-1,3-thiazol-2-yl)acetamide]
NCIH 460 cells
  GI50: 7.5 µM
  IC100: > 100 µM
  LC50: > 100 µM
HCT 116 cells
  GI50: 26 µM
  IC100: > 100 µM
  LC50: > 100 µM
MDAMB231/U251
  GI50: 67 µM
  IC100: > 100 µM
  LC50: > 100 µM
[1]
  Mean GI50: 33.50
[2]
  HDAC Inhibition 1 μM: 68.04
  HDAC Inhibition 10 μM: 96.19

## CC(=O)SCCCCCC(=O)N1CCN(CC(=O)Nc2ccccc2)CC1 [Example 18, 2-[4-(6-Thioacetylhexanoyl)piperazin-1-yl]-N-(phenyl-2-yl)acetamide]
NCIH 460 cells
  GI50: 30 µM
  IC100: > 100 µM
  LC50: > 100 µM
HCT 116 cells
  GI50: 63 µM
  IC100: > 100 µM
  LC50: > 100 µM
MDAMB231/U251
  GI50: > 100 µM
  IC100: > 100 µM
  LC50: > 100 µM
[1]
  Mean GI50: 46.50
[2]
  HDAC Inhibition 1 μM: 65.15
  HDAC Inhibition 10 μM: 94.50

## CC(=O)SCCCCCC(=O)N1CCN(CC(=O)N2CCOCC2)CC1 [Example 19, 2-[4-(6-Thioacetylhexanoyl)piperazin-1-yl]-N-(morpholine)acetamide]
NCIH 460 cells
  GI50: > 100 µM
  IC100: > 100 µM
  LC50: > 100 µM
HCT 116 cells
  GI50: > 100 µM
  IC100: > 100 µM
  LC50: > 100 µM
MDAMB231/U251
  GI50: 57 µM
  IC100: > 100 µM
  LC50: > 100 µM
[1]
  Mean GI50: >100
[2]
  HDAC Inhibition 1 μM: 18.82
  HDAC Inhibition 10 μM: 51.25

## COc1cc(CNC(=O)CN2CCN(C(=O)CCCCSC(C)=O)CC2)cc(OC)c1 [Example 20]
NCIH 460 cells
  GI50: > 100 µM
  IC100: > 100 µM
  LC50: > 100 µM
HCT 116 cells
  GI50: > 100 µM
  IC100: > 100 µM
  LC50: > 100 µM
MDAMB231/U251
  GI50: > 100 µM
  IC100: > 100 µM
  LC50: > 100 µM
[1]
  Mean GI50: >100
[2]
  HDAC Inhibition 1 μM: 26.4
  HDAC Inhibition 10 μM: 55.4

## COc1cccc2sc(NC(=O)CN3CCN(C(=O)CCCCCSC(C)=O)CC3)nc12 [Example 21, 2-[4-(6-Thioacetylhexanoyl)piperazin-1-yl]-N-(4-methoxy-1,3-benzothiazol-2-yl)acetamide]
NCIH 460 cells
  GI50: 93 µM
  IC100: > 100 µM
  LC50: > 100 µM
HCT 116 cells
  GI50: 52 µM
  IC100: > 100 µM
  LC50: > 100 µM
MDAMB231/U251
  GI50: 38 µM
  IC100: > 100 µM
  LC50: > 100 µM
[1]
  Mean GI50: 61
[2]
  HDAC Inhibition 1 μM: 82.9
  HDAC Inhibition 10 μM: 96.2
  IC50: 0.57 µM

## CC(=O)SCCCCCC(=O)N1CCN(CC(=O)Nc2cccc(F)c2)CC1 [Example 22, 2-[4-(6-Thioacetylhexanoyl)piperazin-1-yl]-N-(6-fluorophenyl-2-yl)acetamide]
NCIH 460 cells
  GI50: > 100 µM
  IC100: > 100 µM
  LC50: > 100 µM
HCT 116 cells
  GI50: 67 µM
  IC100: > 100 µM
  LC50: > 100 µM
MDAMB231/U251
  GI50: > 100 µM
  IC100: > 100 µM
  LC50: > 100 µM
[1]
  Mean GI50: >100
[2]
  HDAC Inhibition 1 μM: 6.0
  HDAC Inhibition 10 μM: 50.0

## CC(=O)SCCCCC(=O)N1CCN(CC(=O)Nc2cccc(F)c2)CC1 [Example 23, 2-[4-(5-Thioacetylpentanoyl)piperazin-1-yl]-N-(6-fluorophenyl-2-yl)acetamide]
NCIH 460 cells
  GI50: > 100 µM
  IC100: > 100 µM
  LC50: > 100 µM
HCT 116 cells
  GI50: 63 µM
  IC100: > 100 µM
  LC50: > 100 µM
MDAMB231/U251
  GI50: 38 µM
  IC100: 78 µM
  LC50: > 100 µM
[1]
  Mean GI50: >100
[2]
  HDAC Inhibition 1 μM: 47.2
  HDAC Inhibition 10 μM: 81.7
  IC50: 4.8 µM

## O=C(CN1CCN(C(=O)CCCCCS)CC1)Nc1nc2ccccc2s1 [Example 24, N-1,3-benzothiazol-2-yl-2-[4-(6-mercaptohexanoyl)piperazin-1-yl]acetamide]
NCIH 460 cells
  GI50: 60 µM
  IC100: > 100 µM
  LC50: > 100 µM
HCT 116 cells
  GI50: 0.7 µM
  IC100: > 100 µM
  LC50: > 100 µM
MDAMB231/U251
  GI50: 5 µM
  IC100: 66 µM
  LC50: > 100 µM
[1]
  Mean GI50: 21.90
[2]
  HDAC Inhibition 1 μM: 4
  HDAC Inhibition 10 μM: 27.4
